The term Ki denotes a dissociation constant, usually derived from enzyme kinetics or from competition with a known ligand. Usually IC50 stands for the midpoint of a concentration-inhibition curve.

The source of these data is article PMC8380238, “Structure-based virtual screening of CYP1A1 inhibitors: towards rapid tier-one assessment of potential developmental toxicants” (Archives of Toxicology, 2021).

Like-named read-outs stand apart in the source and are kept apart here.

Data set [1] addresses T1, human recombinant CYP1A1 (rCYP1A1) (Homo sapiens, UniProt P04798).
T1 sequence (P04798 1-512): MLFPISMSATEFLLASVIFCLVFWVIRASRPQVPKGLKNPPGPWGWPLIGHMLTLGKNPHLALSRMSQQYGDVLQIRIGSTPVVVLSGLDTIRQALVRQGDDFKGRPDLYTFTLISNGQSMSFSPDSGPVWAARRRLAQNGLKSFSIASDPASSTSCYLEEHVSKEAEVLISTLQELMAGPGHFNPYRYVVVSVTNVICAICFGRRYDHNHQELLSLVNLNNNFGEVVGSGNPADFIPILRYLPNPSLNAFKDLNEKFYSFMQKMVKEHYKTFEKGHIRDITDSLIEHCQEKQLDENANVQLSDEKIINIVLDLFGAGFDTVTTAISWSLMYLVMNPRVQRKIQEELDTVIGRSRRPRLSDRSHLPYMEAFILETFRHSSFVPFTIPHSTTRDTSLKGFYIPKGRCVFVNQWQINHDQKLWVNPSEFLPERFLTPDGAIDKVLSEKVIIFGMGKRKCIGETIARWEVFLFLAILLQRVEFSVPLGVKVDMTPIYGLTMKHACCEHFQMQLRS

The target of data set [2] is T1, human recombinant CYP1A1 (rCYP1A1). The data set is described as follows: CYP1A1 activity assay repeated at six CEC concentrations (Ki, α, mode of inhibition).
For data set [3] the target is unchanged. The data set is described as follows: CYP1A1 activity assay: inhibition of CEC metabolism (IC50).
Data set [4] concerns human CYP1A1. As to conditions: cited from earlier work.
Data set [5] concerns the target T1, human recombinant CYP1A1 (rCYP1A1). As to conditions: recombinant enzyme.
For data set [6], the system named is CYP1A1. As to conditions: cited from earlier work.
For data set [7], the system named is CYP1A1. As to conditions: cited from earlier work. This is another data set of the same source.
Where [8] appears, read: CYP1A1 Ki (range of colour key, Fig. 5b).
Setting [9] is: CYP1A1 IC50 (range of colour key, Fig. 5a).

As for `CC(O)(CS(=O)(=O)c1ccc(F)cc1)C(=O)Nc1ccc(C#N)c(C(F)(F)F)c1` (centres unmarked) [Bicalutamide, reference compound], in data set [1], the “MOI (mode of inhibition)” value is recorded as “Mixed”. For the same compound, the Ki in data set [2] (setting [8]) is 1 to 10 µM; in data set [2] (Ki), 6.6 µM. For the same compound, the IC50 in data set [3] (setting [9]) is 10 to 100 µM; in data set [3] (IC50), 14 µM.
As to `CC(C)(c1ccc(O)cc1)c1ccc(O)cc1` [Bisphenol A], the “MOI (mode of inhibition)” value in data set [1] is recorded as “Competitive”. Moreover, in data set [2], the “α (degree to which the binding of inhibitor changes the affinity of the enzyme for substrate)” value was found to be 9.1. Also, in data set [2] (Ki), the Ki was found to be 0.53 µM. Moreover, the IC50 in data set [3] (setting [9]) was 1 to 10 µM; in data set [3] (IC50) it was 2.4 µM.
As to `O=c1ccc2nc3ccc(OCc4ccccc4)cc3oc-2c1` [BzRes, resorufin benzyl ether], in data set [4] (ref Stresser et al. [2002]), the “activity of human CYP1A1 on the fluorometric substrate” value is listed as 0.457 pmol/min/pmol CYP1A1.
`CCOc1ccc2cc(C#N)c(=O)oc2c1` [CEC, 3-cyano-7-ethoxycoumarin]: the “activity of human CYP1A1 on the fluorometric substrate” value in data set [4] was 40.2 pmol/min/pmol CYP1A1.
Turning to `O=P1(N(CCCl)CCCl)NCCCO1` (centres unmarked) [Cyclophosphamide, reference compound], the figures for the 50% inhibitory concentration (IC50) entry in data set [5] and in data set [3] (setting [9]) were “∞” and ≥ 1000 µM, respectively.
`CC(=O)O[C@]1(C(C)=O)CC[C@H]2[C@@H]3C=C(Cl)C4=CC(=O)[C@@H]5C[C@@H]5[C@]4(C)[C@H]3CC[C@@]21C` [Cyproterone acetate, reference compound]: the “MOI (mode of inhibition)” value in data set [1] is listed as “Competitive”. Besides, the “α (degree to which the binding of inhibitor changes the affinity of the enzyme for substrate)” value in data set [2] was 7. In addition, the inhibitory constant (Ki) is 1 to 10 µM in data set [2] (CYP1A1 Ki (range of colour key, Fig. 5b), range assigned by colour of the point) and 8.8 µM in data set [2] (Ki, CEC 1.56-50.0 µM). For the same compound, the IC50 in data set [3] (setting [9]) was 1 to 10 µM; in data set [3] (IC50), 9.9 µM.
As for `CCCCc1oc2ccccc2c1C(=O)c1cc(I)c(OCCNCC)c(I)c1` [DEA, desethylamiodarone], in data set [6], the Ki was 1.5 µM and the α is recorded as 5.7.
As to `CCCCOC(=O)c1ccccc1C(=O)OCCCC` [Dibutyl phthalate], the “MOI (mode of inhibition)” value in data set [1] is recorded as “Competitive”. Further, in data set [2], the “α (degree to which the binding of inhibitor changes the affinity of the enzyme for substrate)” value was determined as 13. Besides, the Ki in data set [2] (setting [8]) was 1 to 10 µM; in data set [2] (Ki), 1.6 µM. The IC50 in data set [3] (setting [9]) is 10 to 100 µM; in data set [3] (IC50) it was 10 µM.
Regarding `CCOC(=O)c1ccccc1C(=O)OCC` [Diethyl phthalate], in data set [1], the “MOI (mode of inhibition)” value is recorded as “Competitive”. Moreover, the inhibition constant Ki in data set [2] (setting [8]) was 10 to 15 µM; in data set [2] (Ki), 10 µM. Also, the IC50 in data set [3] (setting [9]) was 10 to 100 µM; in data set [3] (IC50), 38 µM.
Take `C[C@]12CC[C@@H]3c4ccc(O)cc4CC[C@H]3[C@@H]1CC[C@@H]2O` [Estradiol, reference compound]: in data set [7], the CYP1A1 substrate category result was “strong”. Further, the “MOI (mode of inhibition)” value in data set [1] is listed as “Competitive”. In data set [2], the “α (degree to which the binding of inhibitor changes the affinity of the enzyme for substrate)” value is reported as 4.3. Besides, the Ki was 10 to 15 µM in data set [2] (setting [8]) and 13 µM in data set [2] (Ki). In addition, the IC50 is 10 to 100 µM in data set [3] (setting [9]) and 43 µM in data set [3] (IC50).
Take `C[C@]12CC[C@@H]3c4ccc(O)cc4CC[C@H]3[C@@H]1C[C@@H](O)[C@@H]2O` [Estriol]: the values for the IC50 result in data set [5] and in data set [3] (setting [9]) were “∞” and ≥ 1000 µM, respectively.
Take `CC(=O)N1CCN(c2ccc(OCC3COC(Cn4ccnc4)(c4ccc(Cl)cc4Cl)O3)cc2)CC1` (centres unmarked) [Ketoconazole, reference compound]: the “MOI (mode of inhibition)” value in data set [1] is reported as “Noncompetitive”. In addition, the “α (degree to which the binding of inhibitor changes the affinity of the enzyme for substrate)” value in data set [2] was 0.68. Moreover, the Ki in data set [2] (Ki) worked out at 0.11 µM. In addition, in data set [3] (IC50), the half-inhibitory concentration (IC50) came to 0.099 µM.
In the case of `COc1ccc2[nH]cc(CCNC(C)=O)c2c1` [Melatonin], in data set [7], the CYP1A1 substrate category entry was “strong”.
On to `CC(=O)[C@H]1CC[C@H]2[C@@H]3CCC4=CC(=O)CC[C@]4(C)[C@H]3CC[C@]12C` [Progesterone, reference compound], for which the CYP1A1 substrate category result in data set [7] is “weak”. Moreover, the “MOI (mode of inhibition)” value in data set [1] is given as “Competitive”. For the same compound, in data set [2], the “α (degree to which the binding of inhibitor changes the affinity of the enzyme for substrate)” value is 4.3. Further, the inhibition constant Ki in data set [2] (setting [8]) is 15 to 20 µM; in data set [2] (Ki), 20 µM. For the same compound, the concentration for half-maximal inhibition (IC50) in data set [3] (setting [9]) was 10 to 100 µM; in data set [3] (IC50) it was 41 µM.
For the compound `CCCOC(=O)c1ccc(O)cc1` [Propyl paraben], in data set [1], the “MOI (mode of inhibition)” value is recorded as “Competitive”. Besides, in data set [2], the “α (degree to which the binding of inhibitor changes the affinity of the enzyme for substrate)” value was 6.2. The Ki was 15 to 20 µM in data set [2] (setting [8]) and 17 µM in data set [2] (Ki). Also, the IC50 was 10 to 100 µM in data set [3] (setting [9]) and 39 µM in data set [3] (IC50).
On to `C[C@]12CC[C@H]3[C@@H](CCC4=CC(=O)CC[C@@]43C)[C@@H]1CC[C@@H]2O` [Testosterone], for which, in data set [7], the CYP1A1 substrate category entry was “weak”.
Consider `C[C@H]1CCCC(=O)CCC/C=C/c2cc(O)cc(O)c2C(=O)O1` [Zearalenone], for which the “MOI (mode of inhibition)” value in data set [1] was “Mixed”. The “α (degree to which the binding of inhibitor changes the affinity of the enzyme for substrate)” value in data set [2] is on record as 3.5. The inhibition constant (Ki) in data set [2] (Ki) turned out to be 0.66 µM. In addition, in data set [3] (IC50), the concentration for half-maximal inhibition (IC50) amounted to 0.7 µM.
Take `C=CC(=C)CCC=C(C)C` [β-Myrcene]: the “MOI (mode of inhibition)” value in data set [1] is on record as “Mixed”. In addition, in data set [2], the “α (degree to which the binding of inhibitor changes the affinity of the enzyme for substrate)” value came to 3.5. Also, the Ki was 10 to 15 µM in data set [2] (setting [8]) and 11 µM in data set [2] (Ki). Moreover, the IC50 in data set [3] (setting [9]) is 10 to 100 µM; in data set [3] (IC50) it was 52 µM.
